The source of these data is patent publication US20240173232A1, “COSMETIC COMPOSITION COMPRISING CARNITINE-SALICYLATE AS ACTIVE INGREDIENT” (LG HOUSEHOLD & HEALTH CARE LTD., priority 2021, published 2024).

Each structure is given as a SMILES string.

Usually inhibition stands for the percentage by which the read-out fell short of the control. Broadly, the cell viability is the share of living cells, or the viability signal relative to a control.

In one data set the test system is pig back skin. Nature of the data set: In vitro exfoliation efficacy (detached keratinocytes from pig back skin). The note with it: 16 hours, n=5. As for the experimental part: The pig back skin surface was washed with phosphate buffer saline (PBS) and then cut to a certain size. Thereafter, the stratum corneum of the pig skin was exposed and placed on a 96-well plate, 100 μl of each sample was applied, and the 96-well plate was left in a constant temperature and humidity chamber for 16 hours. Thereafter, the supernatant of each sample was mixed well with a trypan blue solution in the 96-well plate to measure the number of detached keratinocytes. In order to verify the suitability of the relative dead skin cell control efficacy evaluation method used in this study, the following method was used. […] After treating the pig skin with the sample by the method described above, the number of detached keratinocytes was counted, and the number of detached keratinocytes in PHA (DL-gluconolactone) at pH 4.0 was set to 100% to evaluate the relative exfoliation efficacy. All evaluations were made at n=5 to secure reliability through repeated results.

In data set [1] the test system is Raw 264.7 cells. Nature of the data set: NO production inhibition in LPS-treated Raw 264.7 cells (GRIESS method). In kind it is cell-based, rat. The note with it: LPS 500 ng/ml. As for the experimental part: The anti-inflammatory effect of carnitine-salicylate (CA-SA) was confirmed experimentally.
In order to evaluate the efficacy of relieving inflammation caused by external stimuli in vitro, an experiment was performed by the GRIESS method using Raw 264.7 cells (ATCC number: CRL-2788), which are rat macrophage cell line, to evaluate the inhibition of NO production after treatment with lipopolysaccharide (LPS, Sigma Aldrich, USA). […] After removing the medium and performing starvation with a serum-free medium for 12 hours, the test material was treated at 0.1 to 100 ppm for 30 minutes, and then LPS was added at a concentration of 500 ng/ml and the cells were further cultured for 18 hours. After culturing, the supernatant was taken and transferred to a 96-well plate, GRIESS reagent was added and reacted at room temperature for 15 minutes, and absorbance at 540 nm was measured using an ELISA reader.
In general terms: The Griess reaction detects nitrite, a stable product of nitric oxide.

Data set [2] relates to Raw 264.7 cells. Nature of the data set: MTT cytotoxicity assay, Raw 264.7 cells. The note with it: 24 hours. As for the experimental part:
(§1) The cytotoxicity of carnitine-salicylate (CA-SA) was evaluated by 3-(4,5-dimethythiazol-2-yl)-2,5-diphenyl tetrazolium bromide (MTT) assay. […] After removing the medium and adding each sample to a medium without FBS and incubating for 24 hours, the medium was removed, an MTT solution was added at a concentration of […], and reacted at 37° C. for 3 hours. The unreacted MTT solution was removed, and 100 μl of DMSO was added to dissolve the formed reaction product, and then absorbance was measured at 540 nm to confirm the cytotoxicity.
(§2) The cytotoxicity of salicylate, carnitine, and carnitine-salicylate (CA-SA) was evaluated by treating Raw 264.7 cells, which are rat macrophages, and human fibroblasts with the material. As a Raw 264.7 cell is a representative cell used to measure NO inhibitory efficacy in anti-inflammatory efficacy evaluations, its cytotoxicity was evaluated, and cytotoxicity with respect to fibroblasts was evaluated in order to confirm the toxicity that may be induced when the material is included in cosmetics and be repeatedly applied to the skin.

Data set [3] relates to fibroblasts obtained from human skin tissue. Nature of the data set: MTT cytotoxicity assay, human fibroblasts. The note with it: 24 hours. As for the experimental part:
as §1, §2
Background: Tetrazolium dyes change colour on reduction, which living cells bring about.

The mark [4] stands for this setting: 2% (mixture 1% + 1%), pH 5.5, relative to 10% gluconolactone pH 4.0 = 100%.

As to `O=C1O[C@H](CO)[C@@H](O)[C@H](O)[C@H]1O` (racemic) [Gloconolactone, DL-gluconolactone], the “Exfoliation rate (%)” value in the data set on pig back skin (10%, pH 4, positive control set to 100%) is 100.0%; with pig back skin (10%, pH 6, relative to gluconolactone pH 4.0 = 100%) it was 32.0%.
With `C[N+](C)(C)CC(O)CC(=O)[O-]` (centres unmarked) [CA, 4-trimethylamino-3-hydroxybutyric acid], the inhibition at 10 ppm with Raw 264.7 cells [1] (Mus musculus, RAW264.7, 10 ppm (mixture 10 ppm + 10 ppm), 18 hours, read-out: NO inhibition rate) was 0%. Moreover, the “Exfoliation rate (%)” value in the data set with pig back skin (setting [4]) is 55.2%.
As for `CC(=O)O.CNC(=N)NCCC[C@H](N)C(=O)O` [L-MMMA, NG-monomethyl-L-arginine acetate], the NO inhibition rate with Raw 264.7 cells [1] (positive control) came out at 62.2%.
For the compound `O=C(O)c1ccccc1O` [SA, salicylate], in the data set with Raw 264.7 cells [1] (10 ppm (mixture 10 ppm + 10 ppm), 18 hours), the NO inhibition rate is 16.4%. In addition, the cell viability is 96.16% in the data set with Raw 264.7 cells [2] (50 ppm), 79.74% in the data set on Raw 264.7 cells [2] (100 ppm), 94.83% in data set [3] (50 ppm) and 85.36% in data set [3] (100 ppm). In the data set on pig back skin (setting [4]), the “Exfoliation rate (%)” value stood at 19.2%.
